Reference: ChEMBL document CHEMBL4152250, “Antibacterial and anti-TB tat-peptidomimetics with improved efficacy and half-life” (Eur J Med Chem, 2018)
In brackets after ≈: the same amount, converted by molar mass. Activity calls are given as the source filed them. The rule behind the calls is not given here. Numbered stars: 1 amine (or outer) side, 2 acyl side, 3 side chain; on linkers, the order of the positions; unused ones are H or OH. Square brackets hold non-standard residues; d marks the D form. Peptide text beside a SMILES is read from it. Pro(N-(CH2)3Gua,cis-4-NH-) = N=C(N)NCCCN1C[C@@H](N[*:1])C[C@H]1C(=O)[*:2]; X1 = NCCCN1C[C@@H](N[*:1])C[C@H]1C(=O)[*:2]; Ethylenediamine = C(CN[*:2])N[*:1]; βAla = NCCC(=O)O

Experiments:
[1] = Cytotoxicity against human HeLa cells assessed as cell viability at 1 to 10 uM after 24 hrs by MTT assay relative to control; format: cell-based; settings: read-out: Activity
[2] = tested on: Staphylococcus epidermidis; experiment: Antibacterial activity against Staphylococcus epidermidis NCIM 5270 after 12 hrs by serial dilution method; format: functional, organism-based; settings: NCIM 5270, 12 h
Escherichia coli [3] = experiment: Antibacterial activity against Escherichia coli NCIM 2688 after 8 hrs by serial dilution method; format: functional, organism-based; settings: NCIM 2688, 8 h
[4] = tested on: Mycobacterium tuberculosis; experiment: Antitubercular activity against active stage of Mycobacterium tuberculosis H37Ra ATCC 25177 after 8 days by XRMA; format: functional, organism-based; settings: H37Ra ATCC 25177, 192 h
Bacillus subtilis = experiment: Antibacterial activity against Bacillus subtilis NCIM 2079 after 12 hrs by serial dilution method; format: functional, organism-based; settings: NCIM 2079, 12 h
Escherichia coli [5] = experiment: Disruption of cell wall in Escherichia coli NCIM 2688 at MIC after 60 mins by transmission electron microscopic method; format: functional, organism-based
Staphylococcus aureus [6] = experiment: Disruption of cell wall in Staphylococcus aureus NCIM 2010 at MIC after 60 mins by transmission electron microscopic method; format: functional, organism-based
[7] = tested on: Mycobacterium tuberculosis; experiment: Antitubercular activity against dormant stage of Mycobacterium tuberculosis H37Ra ATCC 25177 after 12 days by XRMA; format: functional, organism-based; settings: H37Ra ATCC 25177, 288 h
Pseudomonas aeruginosa = experiment: Antibacterial activity against Pseudomonas aeruginosa NCIM 2036 after 8 hrs by serial dilution method; format: functional, organism-based; settings: NCIM 2036, 8 h
Staphylococcus aureus [8] = experiment: Antibacterial activity against Staphylococcus aureus NCIM 2010 after 12 hrs by serial dilution method; format: functional, organism-based; settings: NCIM 2010, 12 h
Enterobacter sp. = experiment: Antibacterial activity against Enterobacter sp. NCIM 5392 after 8 hrs by serial dilution method; format: functional, organism-based; settings: NCIM 5392, 8 h

| SMILES | viability at 24 h, up to 10 µM [1] | IC50 [2] | MIC [2] | IC50 (Escherichia coli [3]) | MIC (Escherichia coli [3]) | IC50 [4] | MIC [4] | IC50 (Bacillus subtilis) | MIC (Bacillus subtilis) | Activity (Escherichia coli [5]) | Activity (Staphylococcus aureus [6]) | IC50 [7] | MIC [7] | IC50 (Pseudomonas aeruginosa) | MIC (Pseudomonas aeruginosa) | IC50 (Staphylococcus aureus [8]) | MIC (Staphylococcus aureus [8]) | IC50 (Enterobacter sp.) | MIC (Enterobacter sp.) |
| --- | --- | --- | --- | --- | --- | --- | --- | --- | --- | --- | --- | --- | --- | --- | --- | --- | --- | --- | --- |
| CC(=O)N[C@@H](Cc1ccccc1)C(=O)NCC(=O)N[C@@H](CCCNC(=N)N)C(=O)N[C@@H](CCCCN)C(=O)N[C@@H](CCCCN)C(=O)N[C@@H](CCCNC(=N)N)C(=O)N[C@@H](CCCNC(=N)N)C(=O)N[C@@H](CCC(N)=O)C(=O)N[C@@H](CCCNC(=N)N)C(=O)N[C@@H](CCCNC(=N)N)C(=O)N[C@H]1C[C@@H](C(=O)NCCC(N)=O)N(CCCNC(=N)N)C1 (Ac-FGRKKRRQRR[Pro(N-(CH2)3Gua,cis-4-NH-)][βAla]-NH2) | ≥ 80% | 10 nM | 4.92 µM (≈ 8.42 µg/mL) | 8 nM | 5.71 µM (≈ 9.77 µg/mL) | 2420 nM | 27.6 µM (≈ 47.2 µg/mL) | 9.3 nM | 3.56 µM (≈ 6.09 µg/mL) | Active | Active | 1970 nM | 18.4 µM (≈ 31.5 µg/mL) | 9.3 nM | 3.35 µM (≈ 5.73 µg/mL) | 7 nM | 8.47 µM (≈ 14.5 µg/mL) | 13 nM | 18.9 µM (≈ 32.3 µg/mL) |
| CC(=O)N[C@@H](Cc1ccccc1)C(=O)NCC(=O)N[C@H]1C[C@@H](C(=O)N[C@@H](CCCCN)C(=O)N[C@@H](CCCCN)C(=O)N[C@@H](CCCNC(=N)N)C(=O)N[C@H]2C[C@@H](C(=O)N[C@@H](CCC(N)=O)C(=O)N[C@H]3C[C@@H](C(=O)N[C@@H](CCCNC(=N)N)C(=O)N[C@H]4C[C@@H](C(=O)NCCN)N(CCCN)C4)N(CCCN)C3)N(CCCN)C2)N(CCCN)C1 (Ac-FG[X1]KKR[X1]Q[X1]R[X1]-Ethylenediamine) | ≥ 80% | 7 nM | 3.94 µM (≈ 6.62 µg/mL) | 7 nM | 2.34 µM (≈ 3.93 µg/mL) | 4920 nM | 34.4 µM (≈ 57.8 µg/mL) | 5.8 nM | 3.79 µM (≈ 6.37 µg/mL) | – | – | 1420 nM | 18.3 µM (≈ 30.7 µg/mL) | 7 nM | 2.2 µM (≈ 3.7 µg/mL) | 13.4 nM | 3.02 µM (≈ 5.07 µg/mL) | 11 nM | 4.51 µM (≈ 7.58 µg/mL) |
